Measured values published in PubChem BioAssay AID2060624 (Molecular Pharmacology Branch, DTP, NCI, 2025).

Test system: 217524-143-R1-J4-PDC spheroids with HUVEC/MSC, viability
Experiment: Anticancer human tumor 217524-143-R1-J4-PDC patient-derived pancreatic carcinoma cell line growth inhibition [CLK]
Conditions: for IC50: curve of first compound; for viability, T/C: stronger effect = lower value; active means viability on the fitted dose curve at most 10% of control; inactive means the rest
Source text: A high-throughput screen of multi-cell type tumor spheroids was designed to identify active combinations of […] and targeted small molecules. Complex spheroids include a stromal component modeled by human endothelial cells (HUVEC) and fibroblasts modeled by human mesenchymal stem cells (MSCs). The concentration ranges selected for each drug and investigational agent were based upon clinically achievable concentrations if the clinical Cmax of the agent was known.
Compounds. The drugs and investigational agents: cirtuvivint (SM08502; NSC835563), CC-671 (NSC850746), vemurafenib (NSC761431), tapotoclax (NSC804041), sotorasib (NSC818433), adagrasib (NSC831453), MRTX-1133 (NSC836407), BAY2416964 (NSC825713), copanlisib (NSC816437), inavolisib (NSC800729), abemaciclib (NSC768073), osimertinib (NSC779217), entinostat (NSC756642), eltanexor (KPT-8602, NSC794443), venetoclax (NSC766270), ceralasertib (NSC777638), bortezomib (NSC756655), olaparib (NSC753686), talazoparib (NSC767125), alisertib (NSC759677), peposertib (NSC802822), gemcitabine (NSC613327), 5-fluorouracil (NSC19893), SN-38 (NSC673596), oxaliplatin (NSC266046), paclitaxel (NSC125973), and doxorubicin (NSC123127), were obtained from the National Cancer Institute (NCI) Developmental Therapeutics Program Chemical Repository. The FDA-approved anticancer drug set is available from the Developmental Therapeutics Program at https://dtp.cancer.gov/organization/dscb/obtaining/available plates.htm. […] The stock solutions were prepared in dimethyl sulfoxide (DMSO, Sigma-Aldrich, St. Louis, MO, cat. D2650), except for the platinum complexes which were prepared in saline (Quality Biological, Gaithersburg, MD, cat. 114-055-101), at 800-fold the tested concentration and stored at -70 degrees C prior to their use. All drugs and investigational agents were tested over a range starting from a high concentration at or near the clinical Cmax and decreasing in half-log increments. If the clinical Cmax for an agent had not been determined, the highest concentration tested was 10 microM.
Cell Culture. All cells were maintained in an incubator at 37 degrees C and 5% CO2 with 95% humidity. The PDC lines were cultured according to standard operating procedures established by the NCI PDMR. Briefly, all PDCs were thawed and cultured in Matrigel-coated flasks prepared with a working solution of 1X Ham's F-12 nutrient mix, without supplementation (Invitrogen, Waltham, MA, cat. 11765054), 100 U/mL penicillin-streptomycin (Invitrogen, cat. 15140122), and 2.5% Matrigel (Corning Inc., Corning, NY, cat. 354248) for the first three passages. The 947758-054-R-J2-PDC line was cultured in 6B/Colon 1A media, which includes advanced DMEM/F-12 (Thermo Fisher Scientific, cat. 12634028), 10 mM HEPES (Thermo Fisher Scientific, cat. 15630080), 1X GlutaMAX supplement (Thermo Fisher Scientific, cat. 35050061), 0.1 mg/mL primocin (InvivoGen, cat. ant-pm-2), 10% defined fetal bovine serum, heat inactivated (HyClone Laboratories Inc., cat. SH30070.03HI), 1.25 mM N-Acetyl-L-cysteine (Sigma-Aldrich, cat. A9165), 10 mM nicotinamide (Sigma-Aldrich, cat. N0636), 1X B-27 supplement (Thermo Fisher Scientific, cat. 17504044), 1X N-2 supplement (Thermo Fisher Scientific, cat. 17502048), and 10 microM Y-27632 dihydrochloride (Tocris Bioscience, cat. 1254). The 876862-298-R-J1-PDC was cultured in 6E media, which includes all 6B/Colon 1A media components plus 50% L-WRN conditioned media (ATCC, cat. CRL-3276), 50 ng/mL recombinant human EGF recombinant protein (hEGF; Thermo Fisher Scientific, cat. PHG0311), 10 ng/mL recombinant human fibroblast growth factor 10 (hGFG-10; PeproTech, cat. 100-26), 1 ng/mL recombinant human fibroblast growth factor 2 (hFGF-2; PeproTech, cat. 100-18B), and 1 µM prostaglandin E2 (PGE2; Tocris, cat. 2296). The 227483-062-R1-J1-PDC line was cultured in Panc media, containing all 6E components except hFGF-2, with the addition of 500 nM SB-431542 (Selleckchem, cat. S1067) and 10 nM gastrin (Tocris, cat. 3006). […]

[1] = second compound 0.0316 µM, first compound 0.0316 µM
[2] = second compound 0.0316 µM, first compound 0.1 µM
[3] = second compound 0.0316 µM, first compound 0.316 µM
[4] = second compound 0.0316 µM, first compound 1 µM
[5] = second compound 0.0316 µM, first compound 3.16 µM
[6] = second compound 0.0316 µM, first compound 10 µM
[7] = second compound 0.1 µM, first compound 0.0316 µM
[8] = second compound 0.1 µM, first compound 0.1 µM
[9] = second compound 0.1 µM, first compound 0.316 µM
[10] = second compound 0.1 µM, first compound 1 µM
[11] = second compound 0.1 µM, first compound 3.16 µM
[12] = second compound 0.1 µM, first compound 10 µM
[13] = second compound 0.316 µM, first compound 0.0316 µM
[14] = second compound 0.316 µM, first compound 0.1 µM
[15] = second compound 0.316 µM, first compound 0.316 µM
[16] = second compound 0.316 µM, first compound 1 µM
[17] = second compound 0.316 µM, first compound 3.16 µM
[18] = second compound 0.316 µM, first compound 10 µM
[19] = second compound 1 µM, first compound 0.0316 µM
[20] = second compound 1 µM, first compound 0.1 µM
[21] = second compound 1 µM, first compound 0.316 µM
[22] = second compound 1 µM, first compound 1 µM
[23] = second compound 1 µM, first compound 3.16 µM
[24] = second compound 1 µM, first compound 10 µM
[25] = second compound 3.16 µM, first compound 0.0316 µM
[26] = second compound 3.16 µM, first compound 0.1 µM
[27] = second compound 3.16 µM, first compound 0.316 µM
[28] = second compound 3.16 µM, first compound 1 µM
[29] = second compound 3.16 µM, first compound 3.16 µM
[30] = second compound 3.16 µM, first compound 10 µM
[31] = second compound 10 µM, first compound 0.0316 µM
[32] = second compound 10 µM, first compound 0.1 µM
[33] = second compound 10 µM, first compound 0.316 µM
[34] = second compound 10 µM, first compound 1 µM
[35] = second compound 10 µM, first compound 3.16 µM
[36] = second compound 10 µM, first compound 10 µM
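Further: spheroids exposed to agents for seven days before reading.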

CCCS(=O)(=O)Nc1ccc(F)c(C(=O)c2c[nH]c3ncc(-c4ccc(Cl)cc4)cc23)c1F + CN1CCN(c2cc(C(=O)Nc3cc4cc(-c5cnn(C)c5)ccc4cn3)ccn2)CC1
inactive: viability, T/C [1] 86.3% | viability, T/C [2] 69.2% | viability, T/C [3] 107% | viability, T/C [4] 124% | viability, T/C [5] 135% | viability, T/C [6] 61.4% | viability, T/C [7] 61.4% | viability, T/C [8] 67.7% | viability, T/C [9] 62.4% | viability, T/C [10] 78.8% | viability, T/C [11] 100% | viability, T/C [12] 44.4% | viability, T/C [13] 26.1% | viability, T/C [14] 26.4% | viability, T/C [15] 33.3% | viability, T/C [16] 32.9% | viability, T/C [17] 34.9% | viability, T/C [18] 19.9%
> 10000 nM: IC50 (second compound 0.0316 µM) | IC50 (second compound 0.1 µM)
active: viability, T/C [19] 2.26% | viability, T/C [20] 2.37% | viability, T/C [21] 2.29% | viability, T/C [22] 3.2% | viability, T/C [23] 2.09% | viability, T/C [24] 2.01% | viability, T/C [25] 0.92% | viability, T/C [26] 0.96% | viability, T/C [27] 1.2% | viability, T/C [28] 1.02% | viability, T/C [29] 1.17% | viability, T/C [30] 0.97% | viability, T/C [31] 0.29% | viability, T/C [32] 0.32% | viability, T/C [33] 0.65% | viability, T/C [34] 0.3% | viability, T/C [35] 1.04% | viability, T/C [36] 1.34%
< 31.6 nM: IC50 (second compound 0.316 µM) | IC50 (second compound 1 µM) | IC50 (second compound 3.16 µM) | IC50 (second compound 10 µM)

COC1C=CCC(C)C(C)S(=O)(=O)NC(=O)c2ccc3c(c2)N(CC2CCC21)CC1(CCCc2cc(Cl)ccc21)CO3 (centres undefined) + CN1CCN(c2cc(C(=O)Nc3cc4cc(-c5cnn(C)c5)ccc4cn3)ccn2)CC1
< 31.6 nM: IC50 (second compound 0.316 µM) | IC50 (second compound 1 µM) | IC50 (second compound 3.16 µM) | IC50 (second compound 10 µM)
active: viability, T/C [19] 2.49% | viability, T/C [20] 1.84% | viability, T/C [21] 1.71% | viability, T/C [22] 1.6% | viability, T/C [23] 1.08% | viability, T/C [24] 1.77% | viability, T/C [25] 0.91% | viability, T/C [26] 1.31% | viability, T/C [27] 0.81% | viability, T/C [28] 1% | viability, T/C [29] 1.26% | viability, T/C [30] 0.8% | viability, T/C [31] 1.26% | viability, T/C [32] 0.35% | viability, T/C [33] 0.37% | viability, T/C [34] 0.37% | viability, T/C [35] 0.36% | viability, T/C [36] 1.06%
6400 nM: IC50 (second compound 0.0316 µM)
inactive: viability, T/C [1] 90.2% | viability, T/C [2] 93.2% | viability, T/C [3] 75% | viability, T/C [4] 91.2% | viability, T/C [5] 107% | viability, T/C [6] 23.8% | viability, T/C [7] 65.7% | viability, T/C [8] 67.5% | viability, T/C [9] 56% | viability, T/C [10] 61.4% | viability, T/C [11] 58.5% | viability, T/C [12] 24.5% | viability, T/C [13] 23.9% | viability, T/C [14] 23.3% | viability, T/C [15] 23.3% | viability, T/C [16] 22.9% | viability, T/C [17] 27% | viability, T/C [18] 16.6%
4170 nM: IC50 (second compound 0.1 µM)
